According to patent publication US11505592B2, “Diagnosis and therapy of multiple sclerosis” (PRINDEX S.R.L., priority 2015, dated 2022):

Test system: 5HT2a receptor downstream signaling in MO3-13 cells
Test: Western blotting of proteins downstream of the 5HT2a receptor in MO3-13 cells
Format: cell-based, human
Experimental: The same membrane was also incubated with α-Tubulin antibody to show the protein loading.
Western blotting analysis of DUOX1/2 expression levels in MO3-13 cells harvested for 18 h in medium containing 0.2% FBS, preincubated with DDSK (50 uM) for 30 min in serum-free medium and then stimulated for 30 min with IgG (200 μg/ml) purified from serum of Control (IgCtr) or MS (IgMS) patients.
(§1) Western blotting analysis of P-ERK1/2 expression levels in MO3-13 cells harvested for 18 h in medium containing 0.2% FBS, preincubated with DDSK (50 uM) for 30 min in serum-free medium and then stimulated for 30 min with IgG (200 μg/ml) purified from serum of Control (Ig Ctr) or MS (IgMS) patients.
Western blotting analysis of NOX3 expression levels in MO3-13 cells harvested for 18 h in medium containing 0.2% FBS, preincubated with DDSK (50 uM) for 30 min in serum-free medium and then stimulated for30 min with IgG (200 μg/ml) purified from serum of Control (IgCtr) or MS (IgMS) patients.
as §1, with “of H-Ras” for “of P-ERK1/2”, “stimulated for30” for “stimulated for 30”, “patients. The same membrane was incubated with α-Tubulin antibody to show the protein loading.” for “patients.”
Total cells lysates were obtained in RIPA buffer (50 mM Tris-HCl, pH 7.5, NaCl 150 mM, 1% NP40, 0.5% deoxycholate, 0.1% SDS) containing 2.5 mM Na-pyrophosphate, 1 mM β-glycerophosphate, 1 mM NaVO4, 1 mM NaF, 0.5 mM PMSF, and a cocktail of protease inhibitors (Roche, USA). The cells were kept for 15 min at 4° C. and disrupted by repeated aspiration through a 21-gauge needle. Cell lysates were centrifuged for 10 min at 13000 rpm and the pellets were discarded. Fifty micrograms of total proteins were subjected to SDS-PAGE under reducing conditions. […] Membranes were placed in 5% non-fat milk in […], 0.5% Tween 20 (TBST) at 4° C. for 2 h to block the nonspecific binding sites. Filters were incubated with specific antibodies before being washed three times in TBST and then incubated with a peroxidase-conjugated secondary antibody (Santa Cruz). After washing with TBST, peroxidase activity was detected with the ECL system (GE-Healthcare, UK).
The filters were also probed with an anti α-tubulin antibody (Sigma, USA). […] Densitometric values were normalized to α-tubulin.

[1] = 50 uM peptide 30 min, then IgMS 200 μg/ml 30 min

Q: What does the source list for DDSKVFKEGS?
A: effect of peptide preincubation on IgMS-increased DUOX1/2 protein levels [1]: reverted the effect; effect of peptide preincubation on IgMS-increased HaRas protein levels [1]: reverted the effect; effect of peptide preincubation on IgMS-increased NOX3 protein levels [1]: reverted the effect; effect of peptide preincubation on IgMS-increased P-ERK1/2 protein levels [1]: reverted the effect; effect of peptide on protein levels (DUOX1/2, P-ERK1/2, NOX3, HaRas) in cells incubated with IgG from control subjects (50 uM peptide, IgG control 200 μg/ml): did not significantly modify
